Data: patent US20260248788A1, “NEW COMPOUNDS AND TREATMENT OF RENAL CELL CARCINOMA” (TRUSTLIFE THERAPEUTICS INC., priority 2023, published 2026)
pIC50: −log10 of the molar value. Entries after “also recorded” stand apart in the source; their conditions may differ.

Tests used:
Assay type in all cases: cell-based, human
BUB1B = experiment: Western blot of BUB1B in Caki-1 cells treated with TG-101209 derivatives; settings: for expression levels of BUB1B (Western blot): Caki-1 cells, 5 μM of target drug, 1 day (FIG. 41, 56); for expression levels of BUB1B (summary statement): concentration not given
Description: (§1) Cell culture 2: Caki-1 was purchased from CLS Cell Lines Service (Germany). The cells were maintained in McCoy's 5A (modified) medium (16600082, Thermo Fisher Scientific, USA) and supplemented with 10% fetal bovine serum (FBS, F7524, Sigma-Aldrich), 1% Penicillin/Streptomycin (P4333, Sigma-Aldrich).
The target drugs developed as alternatives to TG-101209, were dissolved in 0.1% DMSO (41639, Sigma-Aldrich). Caki-1 cells from cell culture 2 were seeded in a 6-well plate at 3×10^5 cells per well. […]
The cells were washed with PBS solution and then lysed with CelLytic M (C2978, Sigma-Aldrich) lysis buffer containing protease inhibitors (11836170001, Roche). The cell lysates were centrifuged at 12 000 rpm for 10 min and supernatants were collected. Protein Assay Dye Reagent (5000006, Bio-Rad) was used for the determination of protein concentration. The absorbance of the proteins was measured spectrophotometrically at 595 nm by a microplate reader (Hidex Sense Beta Plus). Protein electrophoresis was performed using Mini-PROTEAN® TGX™ Precast Gels (4561086, Bio-Rad) and then the separated proteins were transferred to a Trans-Blot Turbo Mini 0.2 μm PVDF Transfer Packs membrane (1704158, Bio-Rad) by using Trans-Blot® Turbo™ Transfer System (Bio-Rad). The membrane was blocked with 5% skim milk for 30 min at 4° C. with gentle rocking. After blocking, the membrane was treated with primary antibodies: Anti-BUB1B (HPA008419, Human Protein Atlas, Sweden) and Anti-Beta actin (ab8227, Abcam) as a loading control overnight at 4° C. on a rocking platform. After the treatment of primary antibodies, the membrane was washed three times with TBS-T buffer (A09-7500-100, Medicago). Then, Goat anti-Rabbit IgG-HRP (ab205718, Abcam) was treated as the secondary antibody for 30 min at 4° C. with gentle rocking.

Caki-1 cells [1] = experiment: MTT cell viability assay; settings: for cell viability of treated cells (summary statement): concentration not given; for reduction in cell viability (MTT) / effect on cell viability (MTT): 1 day
Description: as §1
The cytotoxic effects of the TG-101209 and its alternatives on the Caki-1 cells were tested by MTT (Thiazolyl Blue Tetrazolium Bromide) method. 1.5×10^4 cells were seeded per well in a 96-well plate in 100 μL growth media. […] After the incubation period, 5 mg/ml MTT (M2128, Sigma-Aldrich) solution in PBS (10 μL) was added to each well. After 1 hour, the MTT solution and all media were removed from the wells. 100 μl of DMSO was added and mixed to dissolve the formazan crystals. Cell viability was analysed by measuring the absorbance of the dissolved formazan at a wavelength of 570 nm with a microplate reader (Hidex Sense Beta Plus).

Caki-1 cells [2] = experiment: LDH cytotoxicity assay; settings: 1 day; for cytotoxicity (LDH assay): Caki-1, 10 μM; for Ranking, Cytotoxicity (%): top five, LDH assay, 10 μM, rank 1 = highest
Description: as §1
Lactate dehydrogenase (LDH) assay was performed with LDH Assay Kit (ab65393). […] 20 μl of media was analysed with LDH Assay Kit as per manufacturer's instruction.

| Structure (SMILES) | expression levels of BUB1B (Western blot) (BUB1B) | expression levels of BUB1B (summary statement) (BUB1B) | cell viability of treated cells (summary statement) (Caki-1 cells [1]) | reduction in cell viability (MTT) (Caki-1 cells [1]; Caki-1, 5 μM, first batch) | further results |
| --- | --- | --- | --- | --- | --- |
| Cc1cnc(Nc2ccc(N3CCN(C)CC3)cc2)nc1Nc1cccc(S(=O)(=O)Nc2ccccc2)c1 [Compound M3, 3-((5-methyl-2-((4-(4-methylpiperazin-1-yl)phenyl)amino)pyrimidin-4-yl)amino)-N-phenylbenzenesulfonamide] | significantly lower the expression levels of BUB1B |  |  |  |  |
| Cc1cnc(Nc2ccc(N3CCN(C)CC3)cc2)nc1Nc1cccc(S(=O)(=O)N2CCOCC2)c1 [Compound M7, 5-methyl-N2-(4-(4-methylpiperazin-1-yl)phenyl)-N4-(3-(morpholinosulfonyl)phenyl)pyrimidine-2,4-diamine] | significantly lower the expression levels of BUB1B | reduction of the expression levels of BUB1B | especially low cell viability; also recorded: reduced cell viability |  |  |
| Cc1cn(-c2cc(Nc3ncc(C)c(Nc4cccc(S(=O)(=O)NC(C)(C)C)c4)n3)cc(C(F)(F)F)c2)cn1 [Compound M64, N-(tert-butyl)-3-((5-methyl-2-((3-(4-methyl-1H-imidazol-1-yl)-5-(trifluoromethyl)phenyl)amino)pyrimidin-4-yl)amino)benzenesulfonamide] | significantly lower the expression levels of BUB1B |  |  |  |  |
| COc1cc(Nc2ncc(C)c(Nc3cccc(S(=O)(=O)NC(C)(C)C)c3)n2)cc(OC)c1 [Compound M79, N-(tert-butyl)-3-((2-((3,5-dimethoxyphenyl)amino)-5-methylpyrimidin-4-yl)amino)benzenesulfonamide] | significantly lower the expression levels of BUB1B | reduction of the expression levels of BUB1B | especially low cell viability; also recorded: significantly reduced cell viability |  |  |
| Cc1ccc(Nc2ncc(C)c(Nc3cccc(S(=O)(=O)NC(C)(C)C)c3)n2)cc1Nc1nc(-c2cccnc2)cs1 [Compound M88, N-(tert-butyl)-3-((5-methyl-2-((4-methyl-3-((4-(pyridin-3-yl)thiazol-2-yl)amino)phenyl)amino)pyrimidin-4-yl)amino)benzenesulfonamide] | significantly lower the expression levels of BUB1B | reduction of the expression levels of BUB1B | especially low cell viability; also recorded: significantly reduced cell viability |  | pIC50 (Caki-1 cells [1]; Homo sapiens, 24 h, Caki-1, 1 day (FIG. 43), text: after treatment with 5 μM): < 5.52 |
| COc1cc(NC(=O)c2ccc(Nc3ncc(C)c(Nc4cccc(S(=O)(=O)NC(C)(C)C)c4)n3)cc2)cc(OC)c1 [Compound M101A, 4-((4-((3-(N-(tert-butyl)sulfamoyl)phenyl)amino)-5-methylpyrimidin-2-yl)amino)-N-(3,5-dimethoxyphenyl)benzamide] |  |  | particularly low cell viability; also recorded: significantly reduced cell viability | the greatest | effect on cell viability (MTT) (Caki-1 cells [1]; Caki-1, 10 μM, first batch): most profound effect; cytotoxicity (LDH assay) (Caki-1 cells [2]; first batch): exhibited cytotoxicity; Ranking, Cytotoxicity (%) (Caki-1 cells [2]): 5 |
| Cc1cnc(Nc2ccc(C(=O)Nc3cccc(Br)c3)cc2)nc1Nc1cccc(S(=O)(=O)NC(C)(C)C)c1 [Compound M101B, N-(3-bromophenyl)-4-((4-((3-(N-(tert-butyl)sulfamoyl)phenyl)amino)-5-methylpyrimidin-2-yl)amino)benzamide] |  |  | particularly low cell viability; also recorded: significantly reduced cell viability | the greatest | cytotoxicity (LDH assay) (Caki-1 cells [2]; first batch): exhibited cytotoxicity; Ranking, Cytotoxicity (%) (Caki-1 cells [2]): 3 |
| Cc1cnc(Nc2ccc(C(=O)Nc3cccc(S(=O)(=O)NC(C)(C)C)c3)cc2)nc1Nc1cccc(S(=O)(=O)NC(C)(C)C)c1 [Compound M101D, N-(3-(N-(tert-butyl)sulfamoyl)phenyl)-4-((4-((3-(N-(tert-butyl)sulfamoyl)phenyl)amino)-5-methylpyrimidin-2-yl)amino)benzamide] |  |  | particularly low cell viability; also recorded: significantly reduced cell viability | the greatest | effect on cell viability (MTT) (Caki-1 cells [1]; Caki-1, 10 μM, first batch): greatest reduction of cell viability; cytotoxicity (LDH assay) (Caki-1 cells [2]; first batch): highest cytotoxicity; Ranking, Cytotoxicity (%) (Caki-1 cells [2]): 1 |
| Cc1cnc(Nc2ccc(C(=O)Nc3cccc(S(=O)(=O)N4CCOCC4)c3)cc2)nc1Nc1cccc(S(=O)(=O)NC(C)(C)C)c1 [Compound M101F, 4-((4-((3-(N-(tert-butyl)sulfamoyl)phenyl)amino)-5-methylpyrimidin-2-yl)amino)-N-(3-(morpholinosulfonyl)phenyl)benzamide] |  |  | particularly low cell viability; also recorded: significantly reduced cell viability | the greatest | cytotoxicity (LDH assay) (Caki-1 cells [2]; first batch): exhibited cytotoxicity |
| Cc1cnc(Nc2ccc(C(=O)Nc3ccc(OCCCN4CCOCC4)cc3)cc2)nc1Nc1cccc(S(=O)(=O)NC(C)(C)C)c1 [Compound M101G, 4-((4-((3-(N-(tert-butyl)sulfamoyl)phenyl)amino)-5-methylpyrimidin-2-yl)amino)-N-(4-(3-morpholinopropoxy)phenyl)benzamide] |  |  | particularly low cell viability; also recorded: significantly reduced cell viability | the greatest |  |
| Cc1cnc(Nc2ccc(C(=O)Nc3ccc4ncccc4c3)cc2)nc1Nc1cccc(S(=O)(=O)NC(C)(C)C)c1 [Compound M101H, 4-((4-((3-(N-(tert-butyl)sulfamoyl)phenyl)amino)-5-methylpyrimidin-2-yl)amino)-N-(quinolin-6-yl)benzamide] |  |  | particularly low cell viability; also recorded: significantly reduced cell viability | the greatest |  |
| Cc1ccc(NC(=O)c2ccc(Nc3ncc(C)c(Nc4cccc(S(=O)(=O)NC(C)(C)C)c4)n3)cc2)cc1S(N)(=O)=O [Compound M101Q, 4-((4-((3-(N-(tert-butyl)sulfamoyl)phenyl)amino)-5-methylpyrimidin-2-yl)amino)-N-(4-methyl-3-sulfamoylphenyl)benzamide] |  |  |  |  | cytotoxicity (LDH assay) (Caki-1 cells [2]; second batch): greatest cytotoxicity |
| Cc1cnc(Nc2ccc(C(=O)Nc3ccc(Oc4ccc(Cl)cc4)nc3)cc2)nc1Nc1cccc(S(=O)(=O)NC(C)(C)C)c1 [Compound M101V, 4-((4-((3-(N-(tert-butyl)sulfamoyl)phenyl)amino)-5-methylpyrimidin-2-yl)amino)-N-(6-(4-chlorophenoxy)pyridin-3-yl)benzamide] |  |  |  |  | cytotoxicity (LDH assay) (Caki-1 cells [2]; second batch): greatest cytotoxicity |
| COc1cc(Nc2ncc(C)c(Nc3cccc(S(=O)(=O)N4CCOCC4)c3)n2)cc(OC)c1OC [Compound M115, 5-methyl-N4-(3-(morpholinosulfonyl)phenyl)-N2-(3,4,5-trimethoxyphenyl)pyrimidine-2,4-diamine] |  | reduction of the expression levels of BUB1B | especially low cell viability; also recorded: reduced cell viability |  |  |
| COc1cc(Nc2ncc(C)c(Nc3ccc(N4CCN(C)CC4)cc3)n2)cc(OC)c1OC [Compound M119, 5-methyl-N4-(4-(4-methylpiperazin-1-yl)phenyl)-N2-(3,4,5-trimethoxyphenyl)pyrimidine-2,4-diamine] |  | reduction of the expression levels of BUB1B | especially low cell viability; also recorded: significantly reduced cell viability |  |  |
| Cc1cnc(Nc2ccc(C(=O)Nc3ccc(N4CCN(C)CC4)cc3)cc2)nc1Nc1ccc(N2CCN(C)CC2)cc1 [ME3, 4-((5-methyl-4-((4-(4-methylpiperazin-1-yl)phenyl)amino)pyrimidin-2-yl)amino)-N-(4-(4-methylpiperazin-1-yl)phenyl)benzamide] |  |  | particularly low cell viability; also recorded: significantly reduced cell viability |  | reduction in cell viability (MTT) (Caki-1 cells [1]; Caki-1, 10 μM, second batch): the greatest |
